Measured values taken from paper PMC9841589, “Identification of 2-Aminoacyl-1,3,4-thiadiazoles as Prostaglandin E2 and Leukotriene Biosynthesis Inhibitors” (ACS Medicinal Chemistry Letters, 2022).

Key:
Human recombinant 5-LO = target: T1, Human recombinant 5-LO (Homo sapiens, UniProt P09917); assay: Cell-free 5-LO activity assay; format: biochemical; settings: percentage of uninhibited control (100%), n = 3; n.i.: no inhibitory activity observed
T1 construct: made in house; host or cells: E. coli BL21 transformed with pT3-5-LO plasmid
T1 sequence (P09917 1-674): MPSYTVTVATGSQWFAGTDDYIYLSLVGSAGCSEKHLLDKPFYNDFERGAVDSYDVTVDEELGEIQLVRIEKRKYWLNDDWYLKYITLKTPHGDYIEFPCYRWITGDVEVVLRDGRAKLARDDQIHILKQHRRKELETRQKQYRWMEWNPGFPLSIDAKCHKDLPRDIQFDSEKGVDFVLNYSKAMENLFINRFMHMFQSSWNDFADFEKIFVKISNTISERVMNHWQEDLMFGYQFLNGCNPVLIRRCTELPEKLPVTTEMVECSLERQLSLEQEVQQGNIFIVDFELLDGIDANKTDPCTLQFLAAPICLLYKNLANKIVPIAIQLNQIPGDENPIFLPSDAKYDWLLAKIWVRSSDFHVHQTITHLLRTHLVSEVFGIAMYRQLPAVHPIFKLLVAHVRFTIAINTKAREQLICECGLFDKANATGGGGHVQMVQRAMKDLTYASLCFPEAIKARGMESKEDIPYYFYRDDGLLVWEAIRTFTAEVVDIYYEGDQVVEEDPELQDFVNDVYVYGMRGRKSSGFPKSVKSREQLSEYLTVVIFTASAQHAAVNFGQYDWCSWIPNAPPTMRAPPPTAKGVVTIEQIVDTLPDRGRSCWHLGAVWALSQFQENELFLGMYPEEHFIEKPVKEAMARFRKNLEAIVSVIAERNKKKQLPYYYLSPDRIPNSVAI
Description: mM glutathione, and 250 mM sucrose) and the protein concentration was defined. Potassium phosphate buffer (0.1 M, pH = 7.4) plus glutathione (2.5 mM) was added to dilute microsomes, which were then seeded in a 96-well plate. Test compounds 1-9 (10 µM) or DMSO (1%) were added and preincubated for 15 min on ice. MK886 (10 µM) and MD-52 (1 µM) were used as reference drugs.
The reactions started by adding 20 µM of PGH2, and 1 min later, 100 µl of a solution containing FeCl3 (40 mM), citric acid (80 mM), and 11β-PGE 2 (10 µM) were added for stopping the conversion of PGH2. After the extraction of PGE2 and 11β-PGE 2 (internal stardard) by solid-phase extraction, the quantity of product formation (PGE2) was determined by RP-HPLC.114
Cell-free 5-LO activity assay
Human recombinant 5-LO was expressed in E.coli BL21 transformed with pT3-5-LO plasmid at 30 °C overnight 15.2 A lysis buffer (50 mM triethanolamine, pH = 8.0, 5 mM EDTA, 1 mM phenylmethanesulfonyl fluoride, 60 µg/mL soybean trypsin inhibitor, 2 mM dithiothreitol and lysozyme) was added. […] Finally, a solid-phase extraction then was performed using C18 RP-columns (100 mg, UCT, Bristol, PA, USA) and RP-HPLC was used to quantify 5-LOX products.3 16 The 5-LO inhibitor zileuton (3 µM) was used as positive control. […]

[1] = system: LPS-stimulated J774A.1 macrophages; assay: Determination of IL-6 and PGE2 in murine macrophages; format: cell-based, mouse; settings: J774A.1, LPS 10 μg/mL, compound 1 μM, 24 h
Description: LOX product analysis, using an MRM method with diagnostic ion fragments and identification, was performed as described previously.922 Determination of IL-6 and PGE2 in murine macrophages Mouse macrophage cell line (J774A.1, ATCC® TIB-67™) was cultured in DMEM supplemented with FBS (ATCC® 30-2020™) to a final concentration of 10%. Cells were seeded in petri culture (100 × 20 mm, Falcon ®) at a density of 5 × 10^5 cells per dish and allowed to grow for dishes 24 h. The medium was then replaced, and cells were treated with LPS (10 ) in the presence or absence of μg/ml compounds 3, 6, 7, 9 (1 µM). Following incubations of 24 h, cells were collected with a cell scraper and, after centrifugation at 14000 × g for 10 min at 4 °C, the supernatant was collected and stored at −80°C for ELISA analysis 1023.

5-LO residual activity (%) (Human recombinant 5-LO)	Compound	PGE2 production [1]	IL-6 production [1]
n.i. (75.9) %	Nc1ccccc1-c1ccc(-c2nnc(NC(=O)c3c(Cl)ccnc3Cl)s2)cc1 [compound 9]		
	Nc1ccccc1-c1ccc(-c2nnc(NC(=O)c3ccccc3Br)s2)cc1 [compound 7]	displayed a similar activity only in terms of PGE2 modulation	
n.i. (125) %	O=C(Nc1nnc(-c2ccc(-c3cccc(O)c3)cc2)s1)c1ccccc1Br [compound 3]	able to modulate	able to modulate
